Assay results published in EP0290003A2, “Imidazoles” (Byk Gulden Lomberg Chemische Fabrik GmbH, priority 1987, dated 1988).
Where two headings read alike, the source gives them in different places.

Tested on: modifizierten Shay-Ratte
Assay: Antiulcerogenic and secretion-inhibiting effect in the modified Shay rat (pylorus ligation + oral acetylsalicylic acid)
Type: in vivo
Conditions: for Magenschutzwirkung: Minderung des Läsionsindexes (%) / Säuresekretionshemmung: Verringerung der HCl-Sekretion (%): versus control group, 4 h after pylorus ligation; for ED50: iv, 4 h, i.v.
From the text: Prüfung der antiulcerogenen und sekretionshemmenden Wirkung an der modifizierten Shay-Ratte
In der folgenden Tabelle 1 ist der Einfluß der erfindungsgemäßen Verbindungen nach intravenöser (i. v.) Gabe auf die Läsionsbildung sowie die Säureausscheidung bei der modifizierten Shay-Ratte dargestellt.
Die Ulcusprovokation erfolgt an 24 Stunden nüchternen Ratten (weiblich, 180-200 g, 4 Tiere je Käfig auf hohem Gitterrost) durch Pylorusligatur (unter Diethylethernarkose) und orale Applikation von 100 mg/10ml/kg Acetylsalicylsäure. Die zu prüfenden Substanzen werden intravenös (1 ml/kg) unmittelbar nach der Pylorusligatur verabreicht. Der Wundverschluß wird mittels Michelklammern vorgenommen. 4 Stunden danach erfolgt die Tötung der Tiere im Etherrausch durch Atlas-Dislokation und die Resektion des Magens.
Der Magen wird längs der großen Kurvatur eröffnet und auf einer Korkplatte aufgespannt, nachdem zuvor die Menge des sezernierten Magensaftes (Volumen) und später sein HCl-Gehalt (Titration mit Natronlauge) bestimmt wird. Mit einem Stereomikroskop werden bei 10-facher Vergrößerung Anzahl und Größe (=Durch-messer) vorhandener Ulcera ermittelt. Das Produkt aus Schweregrad (gemäß nachfolgender Punkteskala) und Anzahl der Ulcera dient als individueller Läsionsindex.
Als Maß für den antiulcerogenen Effekt dient die Minderung des mittleren Lä-sionsindex jeder behandelten Gruppe gegenüber dem der Kontrollgruppe (=100 %). Die ED50 bezeichnet diejenige Dosis, die den mittleren Lösionsindex bzw. die HCl-Sektetion gegenüber der Kontrolle um 50 % mindert.

[1] = Rattus norvegicus, interpolated dose reducing the lesion index by 50 % versus control group, read-out: Magenschutzwirkung: ca. ED50 (µmol/kg) i.v.
[2] = interpolated dose reducing the HCl secretion of the rat stomach by 50 % versus control group, read-out: Säuresekretionshemmung: ca. ED50 (µmol/kg) i.v.

SMILES	Magenschutzwirkung: Minderung des Läsionsindexes (%) (Dosis 0,1 µmol/kg i.v.)	Säuresekretionshemmung: Verringerung der HCl-Sekretion (%) (Dosis 0,1 µmol/kg i.v.)	Magenschutzwirkung: Minderung des Läsionsindexes (%) (Dosis 0,3 µmol/kg i.v.)	Säuresekretionshemmung: Verringerung der HCl-Sekretion (%) (Dosis 0,3 µmol/kg i.v.)	Magenschutzwirkung: Minderung des Läsionsindexes (%) (Dosis 1,0 µmol/kg i.v.)	Säuresekretionshemmung: Verringerung der HCl-Sekretion (%) (Dosis 1,0 µmol/kg i.v.)	Magenschutzwirkung: Minderung des Läsionsindexes (%) (Dosis 3,0 µmol/kg i.v.)	Säuresekretionshemmung: Verringerung der HCl-Sekretion (%) (Dosis 3,0 µmol/kg i.v.)	Magenschutzwirkung: Minderung des Läsionsindexes (%) (Dosis 10,0 µmol/kg i.v.)	Säuresekretionshemmung: Verringerung der HCl-Sekretion (%) (Dosis 10,0 µmol/kg i.v.)	ED50 [1]	ED50 [2]	Magenschutzwirkung: Minderung des Läsionsindexes (%) (Dosis 0,03 µmol/kg i.v.)	Säuresekretionshemmung: Verringerung der HCl-Sekretion (%) (Dosis 0,03 µmol/kg i.v.)
Cc1nc2c(OC3CCc4ccccc43)cccn2c1C (stereo not drawn) [Beispiel 1, 8-(2,3-Dihydro-1-indenyloxy)-2,3-dimethyl-imidazo[1,2-a]pyridin]	40%	19%	58%	21%	75%	40%	100%	62%	100%	78%	~0.2 µmol/kg	~1.93 µmol/kg		
Cc1nc2c(OC3CCc4ccccc43)cccn2c1CC#N (stereo not drawn) [Beispiel 4, 3-Cyanomethyl-8-(2,3-dihydro-1-indenyloxy)-2-methyl-imidazo[1,2-a]pyridin]	47%	-10%	64%	26%	86%	27%	100%	83%			~0.1 µmol/kg	~1.34 µmol/kg	38%	3%
